From article PMC3578785, “Improved BM212 MmpL3 Inhibitor Analogue Shows Efficacy in Acute Murine Model of Tuberculosis Infection” (PLoS ONE, 2013) come the findings set out here.

In test [1] the test system is M. tuberculosis H37Rv and mmpL3 mutants DR1-DR9. It counts as cell-based.
In test [2] the test system is M. bovis BCG and mmpL3 mutants M1, M8. Type of test: cell-based.

On to `Cc1ccc(-c2cc(CN3CCOCC3)c(C)n2-c2ccc(F)cc2)cc1` [Compound 5, 2-Methyl-3-[(morpholin-4-yl)-methyl]-5-[4-(methyl)phenyl]-1-[4-(fluoro)phenyl]-1H-pyrrole], for which the “MIC for M. tuberculosis mutants with amino acid change V681I” value in test [1] is listed as 5.4 µM.

Regarding `CCc1ccc(-c2cc(CN3CCOCC3)c(C)n2-c2ccc(F)cc2)cc1` [Compound 8, 2-Methyl-3-[(morpholin-4-yl)-methyl]-5-[4-(ethyl)phenyl]-1-[4-(fluoro)phenyl]-1H-pyrrole], the “MIC for M. tuberculosis isolates resistant to compound 8” value in test [1] turned out to be 0.66 µM. In addition, the “MIC for M. bovis BCG mutants resistant to compound 8” value in test [2] is on record as 0.63 µM.
